SMILES strings stand for the structures. Where only a bound is given, the exact number is not on record here.

The record followed here is patent US10683553B2, “Method for determining sensitivity to simultaneous inhibitor against PARP and Tankyrase” (THE ASAN FOUNDATION, priority 2015, dated 2020).

What all share (assay type): cell-based
In assay [1] the test system is Ls1034 colon cancer cell line. The experiment in a line: MTS cell viability / IC50. To be noted: Homo sapiens, LS-1034. As for the experimental part: (§1) The present inventors conducted an in vitro cell base assay to analyze the anticancer activity of Compound A, which is a novel PARP/Tankyrase simultaneous inhibitor, in 18 human colon cancer cell lines (Korean Cell Line Bank and ATCC purchased), and the cell viability and IC50 of the cell lines for Compound A, the novel PARP/Tankyrase simultaneous inhibitor, were measured.
(§2) As the experimental conditions and methods, a total of 18 human colon cancer cell lines were cultured in RPMI1640 (Roswell Park Memorial Institute 1640; 10% FBS, 1% penicillin/streptomycin), and each cell line was cultured in 96 well plate for 2×10^3 per well at 37° C. for 24 hours and the novel PARP/Tankyrase simultaneous inhibitor, Compound A, was diluted by a multiple of 2 at a maximum of 100 μM and a minimum of 0.390625 μM (100 μM, 50 μM, 25 μM, 12.5 μM, 6.25 μM, 3.125 μM, 1.5625 μM, 0.78125 μM and 0.390625 μM). After the treatment, it was cultured at 37° C. for 72 hours. As for the drug treatment group and non-treatment group, the cell viability of each cell line was measured by MTS analysis (Promega, CellTiter 96 AQeous One Solution) and the IC50 of each cell line was measured using the PRISM program.
(§3) The present inventors analyzed the correlation of 18 human colon cancer cell lines, an anti-cancer effect of Compound A which is a novel PARP/Tankyrase simultaneous inhibitor and the genotype of the p53 gene through an in vitro cell base assay in the same experimental method as Example 1 in 18 human colon cancer cell lines.

Assay [2] concerns HCT116 colon cancer cell line. The experiment in a line: MTS cell viability / IC50. The following applies: Homo sapiens, HCT-116. The method, then:
as §1, §2, §3

Assay [3] concerns HCT-15 colon cancer cell line. The experiment in a line: MTS cell viability / IC50. The following applies: Homo sapiens. As for the experimental part: as §1, §2, §3
The subject of assay [4] is Colo205 colon cancer cell line. The experiment in a line: MTS cell viability / IC50. To be noted: Homo sapiens, COLO 205. The method, then:
as §1, §2, §3

Assay [5] concerns LoVo colon cancer cell line. The experiment in a line: MTS cell viability / IC50. To be noted: Homo sapiens. The method, then:
as §1, §2, §3

In assay [6] the test system is SW48 colon cancer cell line. The experiment in a line: MTS cell viability / IC50. The following applies: Homo sapiens. The method, then: as §1, §2, §3
The test system of assay [7] is HT-29 colon cancer cell line. The experiment in a line: MTS cell viability / IC50. To be noted: Homo sapiens. The method, then: as §1, §2, §3
For assay [8], the system named is Colo201 colon cancer cell line. The experiment in a line: MTS cell viability / IC50. To be noted: Homo sapiens, COLO 201. The method, then:
as §1, §2, §3

For assay [9], the system named is Caco-2 colon cancer cell line. Kind of assay: MTS cell viability / IC50. To be noted: Homo sapiens. The method, then: as §1, §2, §3
Assay [10] deals with SW480 colon cancer cell line. Kind of assay: MTS cell viability / IC50. The following applies: Homo sapiens. As for the experimental part: as §1, §2, §3
For assay [11], the system named is Ls174T colon cancer cell line. Kind of assay: MTS cell viability / IC50. The following applies: Homo sapiens. The method, then:
as §1, §2, §3

For assay [12], the system named is Colo320HSR colon cancer cell line. The experiment in a line: MTS cell viability / IC50. To be noted: Homo sapiens, COLO-320-HSR. The method, then: as §1, §2, §3
Assay [13] concerns SW1417 colon cancer cell line. The experiment in a line: MTS cell viability / IC50. To be noted: Homo sapiens. The method, then: as §1, §2, §3
Assay [14] deals with DLD-1 colon cancer cell line. Kind of assay: MTS cell viability / IC50. To be noted: Homo sapiens. The method, then: as §1, §2, §3
Assay [15] concerns HCT116 human colon cancer cell line. Kind of assay: DNA damage by r-H2AX immunocytochemistry. The following applies: HCT116 (p53 normal type); 50 μM, 48 hours. From the text: In order to analyze the degree of DNA damage of Compound A, which is a novel PARP/Tankyrase simultaneous inhibitor when the p53 gene is a normal type, the present inventors treated a novel PARP/Tankyrase simultaneous inhibitor, Compound A, and the competitive drug PARP inhibitor, olaparib, in the HCT116 human colon cancer cell line in which the p53 gene is a normal type, and then the DNA damage was confirmed by immunochemical method as the expression level of r-H2AX. The conditions and methods of the experiment were as follows: HCT116 human colon cancer cell line in which the p53 gene is a normal type was cultured in RPMI1640 (10% FBS, 1% penicillin/streptomycin) and cultured in a 60 mm plate at 1×10^5 per well for 24 hours at 37° C. Compound A, which is a novel PARP/Tankyrase simultaneous inhibitor, and olaparib, which is a competitive drug PARP inhibitor, were treated with 50 μM each and were cultured for 48 hours. […] The r-H2AX antibody was diluted at a ratio of 1:100 in 1% BSA, reacted overnight at 4° C., washed three times for 10 minutes with TBS-T buffer, and the secondary antibody (alexa Fluor®488 fitc) was diluted at a ratio of 1:100 in 1% BSA, reacted at room temperature for 2 hours, and then washed with TBS-T A buffer three times for 10 minutes, and stained with DAPI (4′,6-diamidino-2-phenylindole) to confirm the expression level of r-H2AX under a fluorescence microscope.

The subject of assay [16] is LoVo human colon cancer cell line. The experiment in a line: Western blot of r-H2AX and cleaved caspase 3 with overexpressed mutant p53 or normal LIG4. The source says:
In order to analyze the degree of DNA damage and the degree of apoptosis of Compound B, which is a novel PARP/Tankyrase simultaneous inhibitor, according to the expression of a mutant type p53 and a normal type LIG4 when the p53 genotype is a normal type and an LIG4 genotype is a mutant type, the present inventors cultured and treated the LoVo human colon cancer cell line in which the p53 genotype is a normal type and an LIG4 genotype is a mutant type under the same condition as in Example 17.

[17] abbreviates: LoVo overexpressing LIG4 normal type gene vs control group (empty).
[18] abbreviates: LoVo overexpressing p53 mutant type gene vs control group (empty).

The IC50 is the concentration that gives 50% inhibition. Read a high IC50 as weaker potency. For `CCOc1cc(CN(C)C)cc2[nH]c(=O)c3c(c12)NCCC3` [Compound A, 8-[(dimethylamino)methyl]-10-ethoxy-1,2,3,4-tetrahydrobenzo[h][1,6]naphthyridin-5(6H)-one], the IC50 in [1] (LS1034, p53 Mutant type cell line) is greater than 100 µM; in [1] (Ls1034, MTS, 72 hours), greater than 100 µM; in assay [2] (HCT116, p53 Wild-type cell line) it was 13.2 µM; in [2] (HCT116, MTS, 72 hours), 13.2 µM; in [3] (HCT-15, p53 Mutant type cell line) it was greater than 100 µM; in [3] (HCT-15, MTS, 72 hours), greater than 100 µM. Besides, the IC50 was 24.4 µM in [4] (Colo205, p53 Mutant type cell line); 24.4 µM in assay [4] (Colo205, MTS, 72 hours); 18.6 µM in assay [5] (MTS, 72 hours); 18.6 µM in [5] (p53 Wild-type cell line); greater than 100 µM in [6] (SW48, p53 Wild-type cell line); greater than 100 µM in [6] (SW48, MTS, 72 hours). The IC50 in [7] (HT29, p53 Mutant type cell line) worked out at 32.2 µM; in assay [7] (MTS, 72 hours), 32.2 µM; in [8] (Colo201, p53 Mutant type cell line), 28.4 µM; in [8] (Colo201, MTS, 72 hours), 28.4 µM; in [9] (Caco-2, p53 Mutant type cell line), 19.2 µM; in [9] (Caco-2, MTS, 72 hours), 19.2 µM. Further, the IC50 in [10] (SW480, p53 Mutant type cell line) was greater than 100 µM; in assay [10] (SW480, MTS, 72 hours) it was greater than 100 µM; in assay [11] (LS174T, p53 Wild-type cell line), 12.2 µM; in assay [11] (Ls174T, MTS, 72 hours), 12.2 µM; in [12] (Colo320, MTS, 72 hours), 8.27 µM; in [12] (Colo320HSR, p53 Mutant type cell line) it was 8.27 µM. For the same compound, the IC50 in [13] (SW1417, p53 Mutant type cell line) was greater than 100 µM; in [13] (SW1417, MTS, 72 hours), greater than 100 µM; in [14] (DLD-1, p53 Mutant type cell line), 85.6 µM; in assay [14] (DLD-1, MTS, 72 hours), 85.6 µM. In assay [15], the “DNA damage: expression level of r-H2AX (immunocytochemistry)” value is reported as “higher expression of r-H2AX than the group treated with olaparib”.

Regarding `N#Cc1ccc(N2CCN(Cc3ccc4c5c(c(=O)[nH]c4c3)CCCN5)CC2)nc1` [Compound B, 6-{4-[(5-oxo-1,2,3,4,5,6-hexahydrobenzo[h][1,6]naphthyridin-8-yl)methyl]piperazin-1-yl}nicotinonitrile], in assay [16] (setting [17]), the “expression amount of cleaved caspase 3 (western blot)” value is listed as “reduced” and the “expression of r-H2AX (western blot)” value is given as “reduced”. Further, in assay [16] (setting [18]), the “expression amount of cleaved caspase 3 (western blot)” value was “reduced” and the “expression of r-H2AX (western blot)” value is “reduced”.
